For test [1], the target named is T1, Mu-type opioid receptor (Homo sapiens, UniProt P35372). The test can be described thus: Displacement of [125I]IOXY from human recombinant mu opioid receptor expressed in CHO cells. It is filed as cell-based. In general terms: Loss of bound radioactivity is the signal in a displacement assay; it reports binding, not function.
The target of test [2] is Delta-type opioid receptor (Homo sapiens, UniProt P41143). The test can be described thus: Displacement of [125I]IOXY from human recombinant delta opioid receptor expressed in CHO cells. Type of test: cell-based.
Delta-type opioid receptor, sequence (P41143 whole entry): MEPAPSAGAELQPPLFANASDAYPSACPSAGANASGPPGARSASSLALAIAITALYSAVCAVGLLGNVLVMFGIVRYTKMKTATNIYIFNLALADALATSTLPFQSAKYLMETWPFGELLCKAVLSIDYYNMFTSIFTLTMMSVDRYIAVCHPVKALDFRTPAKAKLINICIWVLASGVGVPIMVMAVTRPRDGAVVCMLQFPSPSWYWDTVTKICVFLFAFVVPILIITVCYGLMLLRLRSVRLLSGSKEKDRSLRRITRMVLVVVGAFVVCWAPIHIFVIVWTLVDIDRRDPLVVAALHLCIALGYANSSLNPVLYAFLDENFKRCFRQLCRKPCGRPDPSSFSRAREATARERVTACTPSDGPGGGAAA
The target in test [3] is Kappa-type opioid receptor (Homo sapiens, UniProt P41145). The test can be described thus: Displacement of [125I]IOXY from human recombinant kappa opioid receptor expressed in CHO cells. It is filed as cell-based.
Kappa-type opioid receptor, sequence (P41145 whole entry): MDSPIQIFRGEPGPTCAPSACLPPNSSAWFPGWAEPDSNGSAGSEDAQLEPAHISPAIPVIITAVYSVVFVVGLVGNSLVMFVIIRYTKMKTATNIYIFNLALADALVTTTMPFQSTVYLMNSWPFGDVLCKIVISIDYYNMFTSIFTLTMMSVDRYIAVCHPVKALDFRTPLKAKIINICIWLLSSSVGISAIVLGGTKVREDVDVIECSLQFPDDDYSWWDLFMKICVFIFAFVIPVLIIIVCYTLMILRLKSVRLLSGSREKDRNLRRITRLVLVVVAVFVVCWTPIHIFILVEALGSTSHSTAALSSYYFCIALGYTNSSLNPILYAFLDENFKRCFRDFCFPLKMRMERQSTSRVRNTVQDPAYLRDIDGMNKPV
The target of test [4] is T1, Mu-type opioid receptor.
Description: Inverse agonist activity at mu opioid receptor by [35S]GTPgammaS binding assay
Test [5] concerns the target T1, Mu-type opioid receptor. The test can be described thus: Binding affinity to mu opioid receptor.

T1 sequence (P35372 whole entry): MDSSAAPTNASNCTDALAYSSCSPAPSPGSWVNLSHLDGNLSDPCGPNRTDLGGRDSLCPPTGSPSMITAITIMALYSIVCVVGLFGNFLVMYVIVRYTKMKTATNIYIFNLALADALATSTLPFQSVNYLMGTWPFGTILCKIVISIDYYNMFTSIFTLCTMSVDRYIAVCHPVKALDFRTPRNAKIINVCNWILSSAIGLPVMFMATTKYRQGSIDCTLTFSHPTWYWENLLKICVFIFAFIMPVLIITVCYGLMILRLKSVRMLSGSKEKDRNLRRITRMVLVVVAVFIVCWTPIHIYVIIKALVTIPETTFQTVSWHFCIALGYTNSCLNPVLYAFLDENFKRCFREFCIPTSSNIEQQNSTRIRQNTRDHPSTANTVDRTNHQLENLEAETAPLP

By Ki is commonly meant the dissociation constant of the complex between target and ligand, obtained from inhibition or displacement. As to `Oc1cccc(C23CCCC(C2)N(C/C=C/c2ccccc2)CC3)c1` (single isomer, unassigned; (+)) [listing 1 of 2 here], the Ki was found to be 0.002 µM in test [1], 0.138 µM in test [2] and 0.125 µM in test [3].

Take `Oc1cccc([C@@]23CCC[C@@H](C2)N(C/C=C\c2ccccc2)CC3)c1` (single isomer, unassigned): the Ki in test [1] is 0.014 µM; in test [2], 0.359 µM; in test [3], 0.367 µM. The same compound came in with a Ke in test [4] of 7.7 nM.

As for `Oc1cccc([C@@]23CCC[C@@H](C2)N(C[C@@H]2C[C@@H]2c2ccccc2)CC3)c1`, the Ki was 0.011 µM in test [1], 0.196 µM in test [2] and 0.322 µM in test [3]. The compound also gave a Ke in test [4] of 8.2 nM.

In test [4], `Oc1cccc(C23CCCC(C2)N(C/C=C/c2ccccc2)CC3)c1` (single isomer, unassigned; (+)) [listing 2 of 2 here] had a Ke of 0.58 nM.

Take `Oc1cccc([C@]23CCC[C@H](C2)N(C[C@@H]2C[C@H]2c2ccccc2)CC3)c1`: the inhibition constant Ki amounted to 0.047 µM in test [1], 0.8 µM in test [2] and 0.39 µM in test [3]. This compound had a Ke in test [4] of 9.4 nM.

As for `Oc1cccc([C@]23CCC[C@H](C2)N(C/C=C\c2ccccc2)CC3)c1` (single isomer, unassigned), the figures for the Ki in test [1], in test [2] and in test [3] were 0.026 µM, 0.454 µM and 0.123 µM, respectively. In test [4], this compound had a Ke of 3.1 nM.

With `Oc1cccc(C23CCCC(C2)N(C/C=C/c2ccccc2)CC3)c1` (single isomer, unassigned; (-)) [listing 1 of 2 here], the Ke in test [4] worked out at 6.6 nM.

`Oc1cccc([C@]23CCC[C@H](C2)N(C[C@H]2C[C@@H]2c2ccccc2)CC3)c1`: the inhibition constant Ki stood at 0.016 µM in test [1], 0.183 µM in test [2] and 0.323 µM in test [3]. Besides, in test [4], the Ke is 2.2 nM.

For the compound `Oc1cccc([C@]23CCC[C@H](C2)N(C[C@@H]2C[C@@H]2c2ccccc2)CC3)c1`, the Ki in test [1] was found to be 0.265 µM; in test [2] it was 0.61 µM; in test [3] it was 0.153 µM. Further, the Ke in test [4] was 8.6 nM.

As for `Oc1cccc([C@@]23CCC[C@@H](C2)N(C[C@H]2C[C@@H]2c2ccccc2)CC3)c1`, the Ki in test [1] turned out to be 0.003 µM; in test [2] it was 0.165 µM; in test [3], 0.072 µM. In test [4], this compound displayed a Ke of 0.17 nM.

Consider `Oc1cccc([C@@]23CCC[C@@H](C2)N(C[C@H]2C[C@H]2c2ccccc2)CC3)c1`, for which the Ki in test [1] is 0.459 µM; in test [2] it was 1.98 µM; in test [3] it was 0.475 µM. This compound also returned a Ke in test [4] of 33 nM.

Consider `C[C@H]1CN(CC2CC2c2ccccc2)CC[C@@]1(C)c1cccc(O)c1` (some centres undefined), for which, in test [5], the Ki turned out to be 0.00175 µM.

`Oc1cccc(C23CCCC(C2)N(C/C=C/c2ccccc2)CC3)c1` (single isomer, unassigned; (-)) [listing 2 of 2 here]: the Ki in test [1] worked out at 0.006 µM; in test [2], 0.152 µM; in test [3], 0.225 µM.

Regarding `Oc1cccc([C@]23CCC[C@H](C2)N(C[C@H]2C[C@H]2c2ccccc2)CC3)c1`, the Ki in test [1] was determined as 0.076 µM; in test [2] it was 0.547 µM; in test [3] it was 0.174 µM. In test [4], this compound showed a Ke of 18 nM.

As for `Oc1cccc([C@@]23CCC[C@@H](C2)N(C[C@@H]2C[C@H]2c2ccccc2)CC3)c1`, the Ki in test [1] worked out at 0.004 µM; in test [2], 0.2 µM; in test [3], 0.21 µM. Also, the Ke in test [4] stood at 0.31 nM.

Values taken from ChEMBL document CHEMBL1671786, “Probes for narcotic receptor mediated phenomena. 41. Unusual inverse μ-agonists and potent μ-opioid antagonists by modification of the N-substituent in enantiomeric 5-(3-hydroxyphenyl)morphans” (J Med Chem, 2011).
